Assay in all cases: Kinase selectivity, P33-radiolabeled assay
Holding throughout (format): biochemical
Common to all, as to details: 10 μM ATP

One assay concerns the target T1, GCK/MAP4K2 (Homo sapiens, UniProt Q12851).
T1 construct: purchased Reaction Biology Corp
T1 sequence (Q12851 1-820): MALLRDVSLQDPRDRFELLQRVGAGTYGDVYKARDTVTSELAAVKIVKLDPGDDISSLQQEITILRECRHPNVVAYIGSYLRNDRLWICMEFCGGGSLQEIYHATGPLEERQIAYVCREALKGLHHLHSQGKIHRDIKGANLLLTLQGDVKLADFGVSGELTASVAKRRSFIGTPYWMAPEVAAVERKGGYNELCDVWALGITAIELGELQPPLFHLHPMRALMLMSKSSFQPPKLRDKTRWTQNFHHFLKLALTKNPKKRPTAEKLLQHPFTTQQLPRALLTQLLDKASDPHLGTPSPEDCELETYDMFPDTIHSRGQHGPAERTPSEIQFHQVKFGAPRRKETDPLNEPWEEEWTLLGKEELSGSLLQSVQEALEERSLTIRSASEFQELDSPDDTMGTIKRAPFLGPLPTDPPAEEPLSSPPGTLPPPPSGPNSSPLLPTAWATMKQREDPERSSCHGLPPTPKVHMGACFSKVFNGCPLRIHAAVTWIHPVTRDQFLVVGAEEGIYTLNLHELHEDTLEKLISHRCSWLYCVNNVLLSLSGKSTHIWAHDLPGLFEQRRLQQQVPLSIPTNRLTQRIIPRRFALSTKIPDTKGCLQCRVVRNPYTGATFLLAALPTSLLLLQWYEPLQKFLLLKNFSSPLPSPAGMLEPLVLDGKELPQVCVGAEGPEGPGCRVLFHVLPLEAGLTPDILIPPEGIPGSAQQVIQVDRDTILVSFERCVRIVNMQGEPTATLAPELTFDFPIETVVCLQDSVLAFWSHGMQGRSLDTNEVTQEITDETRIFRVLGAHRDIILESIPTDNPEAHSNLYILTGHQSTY
The method, boiled down: (§1)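 Percent residual kinase activity versus DMSO is reported. Conditions: compound at 10 μM, ATP at 10 μM, n = 2.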

Another assay deals with T2, CDC7/DBF4 (Homo sapiens, UniProt O00311).
T2 construct: purchased Reaction Biology Corp
T2 sequence (O00311 whole entry): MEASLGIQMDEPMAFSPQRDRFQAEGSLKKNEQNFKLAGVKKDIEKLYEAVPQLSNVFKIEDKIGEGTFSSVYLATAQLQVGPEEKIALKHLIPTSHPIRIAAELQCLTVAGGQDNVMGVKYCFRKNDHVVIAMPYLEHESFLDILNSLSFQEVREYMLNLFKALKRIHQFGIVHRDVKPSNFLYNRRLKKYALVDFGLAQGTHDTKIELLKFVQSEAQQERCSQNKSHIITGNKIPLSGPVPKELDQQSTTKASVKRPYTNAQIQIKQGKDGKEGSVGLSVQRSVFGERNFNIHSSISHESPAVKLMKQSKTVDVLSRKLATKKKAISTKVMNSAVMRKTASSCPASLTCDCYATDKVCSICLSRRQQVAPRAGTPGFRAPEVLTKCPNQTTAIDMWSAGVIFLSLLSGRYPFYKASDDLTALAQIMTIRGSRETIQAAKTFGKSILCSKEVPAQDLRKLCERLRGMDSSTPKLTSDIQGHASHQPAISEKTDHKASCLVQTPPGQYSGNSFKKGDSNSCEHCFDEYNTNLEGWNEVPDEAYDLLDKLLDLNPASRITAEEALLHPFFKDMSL
T2 sequence (Q9UBU7 whole entry partner): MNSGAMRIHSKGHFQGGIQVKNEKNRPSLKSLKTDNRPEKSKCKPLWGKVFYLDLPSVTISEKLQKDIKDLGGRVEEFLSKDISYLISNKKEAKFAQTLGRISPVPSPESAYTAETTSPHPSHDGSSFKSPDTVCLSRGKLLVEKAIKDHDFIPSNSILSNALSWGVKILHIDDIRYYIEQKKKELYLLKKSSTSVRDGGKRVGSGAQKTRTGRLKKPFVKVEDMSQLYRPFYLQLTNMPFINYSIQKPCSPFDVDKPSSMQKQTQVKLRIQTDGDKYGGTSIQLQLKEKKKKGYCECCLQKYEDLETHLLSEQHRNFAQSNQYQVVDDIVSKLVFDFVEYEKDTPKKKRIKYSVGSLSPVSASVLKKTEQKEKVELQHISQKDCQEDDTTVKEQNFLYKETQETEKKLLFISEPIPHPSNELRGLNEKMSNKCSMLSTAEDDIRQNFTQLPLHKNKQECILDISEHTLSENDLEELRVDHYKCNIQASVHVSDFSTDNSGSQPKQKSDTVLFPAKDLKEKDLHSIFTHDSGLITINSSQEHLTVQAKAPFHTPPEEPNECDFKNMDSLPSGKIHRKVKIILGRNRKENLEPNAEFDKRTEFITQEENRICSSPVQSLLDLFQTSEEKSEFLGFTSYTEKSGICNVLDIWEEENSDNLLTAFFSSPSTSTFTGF
The method, boiled down:
as §1

The next assay deals with T3, NLK (Homo sapiens, UniProt Q9UBE8).
T3 construct: purchased Reaction Biology Corp
T3 sequence (Q9UBE8 1-527): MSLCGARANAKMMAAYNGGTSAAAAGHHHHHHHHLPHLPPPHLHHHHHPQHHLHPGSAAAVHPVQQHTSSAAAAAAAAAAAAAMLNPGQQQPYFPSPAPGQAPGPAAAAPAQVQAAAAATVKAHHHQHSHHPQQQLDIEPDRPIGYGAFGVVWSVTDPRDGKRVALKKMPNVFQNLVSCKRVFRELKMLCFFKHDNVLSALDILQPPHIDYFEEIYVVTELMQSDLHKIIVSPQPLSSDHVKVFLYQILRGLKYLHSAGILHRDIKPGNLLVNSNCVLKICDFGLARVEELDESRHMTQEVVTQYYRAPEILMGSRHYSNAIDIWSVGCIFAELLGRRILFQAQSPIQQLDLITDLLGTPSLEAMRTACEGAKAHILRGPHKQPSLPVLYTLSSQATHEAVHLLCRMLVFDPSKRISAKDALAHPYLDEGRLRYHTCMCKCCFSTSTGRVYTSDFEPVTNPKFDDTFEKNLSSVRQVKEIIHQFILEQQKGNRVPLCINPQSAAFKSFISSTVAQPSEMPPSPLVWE
In outline: as §1

The target of the next assay is T4, FLT3 (Homo sapiens, UniProt P36888).
T4 construct: purchased Reaction Biology Corp
T4 sequence (P36888 27-993): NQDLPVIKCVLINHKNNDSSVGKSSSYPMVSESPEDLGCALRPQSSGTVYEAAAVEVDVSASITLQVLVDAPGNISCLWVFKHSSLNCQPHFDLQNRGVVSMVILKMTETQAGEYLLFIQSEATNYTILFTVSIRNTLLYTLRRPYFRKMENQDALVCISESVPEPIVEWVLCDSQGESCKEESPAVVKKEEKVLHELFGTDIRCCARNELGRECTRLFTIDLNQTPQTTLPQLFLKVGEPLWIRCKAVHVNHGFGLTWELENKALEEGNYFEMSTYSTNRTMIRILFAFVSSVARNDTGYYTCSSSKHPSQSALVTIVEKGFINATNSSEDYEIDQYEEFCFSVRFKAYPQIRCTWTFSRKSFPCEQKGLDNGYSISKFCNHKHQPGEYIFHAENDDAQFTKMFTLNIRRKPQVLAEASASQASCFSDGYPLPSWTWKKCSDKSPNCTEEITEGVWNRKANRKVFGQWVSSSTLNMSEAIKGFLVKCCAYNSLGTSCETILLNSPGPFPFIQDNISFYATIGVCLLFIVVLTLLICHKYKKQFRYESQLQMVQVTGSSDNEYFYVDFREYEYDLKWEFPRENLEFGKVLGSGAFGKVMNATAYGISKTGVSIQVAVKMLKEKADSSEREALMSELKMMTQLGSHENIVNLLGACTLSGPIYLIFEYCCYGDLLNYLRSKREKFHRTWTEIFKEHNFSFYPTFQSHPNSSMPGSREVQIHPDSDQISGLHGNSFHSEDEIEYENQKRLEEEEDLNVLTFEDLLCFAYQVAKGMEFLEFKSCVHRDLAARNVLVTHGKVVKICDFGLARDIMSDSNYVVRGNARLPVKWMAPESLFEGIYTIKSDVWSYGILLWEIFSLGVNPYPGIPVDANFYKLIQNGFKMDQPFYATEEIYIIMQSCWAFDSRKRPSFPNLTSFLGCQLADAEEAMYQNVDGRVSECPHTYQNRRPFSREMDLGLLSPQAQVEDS
The method, boiled down: as §1

The target of another assay is T5, CDK2/cyclin A (Homo sapiens, UniProt P24941).
T5 construct: purchased Reaction Biology Corp
The method, boiled down: as §1

[1] abbreviates: read-out: % Enzyme Activity (relative to DMSO controls) AVG.
[2] abbreviates: read-out: % Enzyme Activity (relative to DMSO controls) Data 1.
[3] abbreviates: read-out: % Enzyme Activity (relative to DMSO controls) Data 2.

1 compound from article PMC4979471 (Cell Death Discovery, 2015) can be followed below.

Read-outs that look alike come from different tables or passages of the source.

`CC(C)(C)C(=O)N1N=CC[C@H]1c1ccccc1` [GSK′963]: the remaining activity at 10 µM at GCK/MAP4K2 (setting [1]) came out at 109%; at GCK/MAP4K2 (setting [2]) it was 108%; at GCK/MAP4K2 (setting [3]), 110%; on CDC7/DBF4 (setting [1]), 103%; at CDC7/DBF4 (setting [2]) it was 105%; at CDC7/DBF4 (setting [3]), 101%. Further, the remaining activity at 10 µM was 112% at NLK (setting [1]); 111% at NLK (setting [2]); 112% at NLK (setting [3]); 101% at FLT3 (setting [1]); 98.7% on FLT3 (setting [2]); 103% at FLT3 (setting [3]). In addition, the remaining activity at 10 µM on CDK2/cyclin A (setting [1]) was 93.6%; on CDK2/cyclin A (setting [2]) it was 95.3%; on CDK2/cyclin A (setting [3]), 92%.
